Laboratory results published in patent US20250223559A1, “AXIOLOID: A STEM CELL-BASED MODEL OF HUMAN AXIAL DEVELOPMENT” (KYOTO UNIVERSITY, priority 2022, published 2025).

Test system: human Axioloids
Assay: scRNA-seq analysis of Axioloids (clusters, marker genes, differentially expressed genes)
Assay type: cell-based
Method: Axioloids were collected into wells of a 96-well plate and washed three times by transferring to another well filled with 0.1% BSA (SIGMA) in HBSS(-). Axioloids of the desired stage and number were then transferred to another well filled with 100 μl of enzyme P solution of the Neural Tissue Dissociation Kit (P) (Miltenyi Biotec) and incubated at 37° C. for 10 minutes. After adding 100 μl of 0.1% BSA in HBSS(-) Axioloids were dissociated by pipetting with an uncut P200 tip 20 times. The dissociated cells were filtered through Flowmi Cell Strainers with […] porosity (Merck) into a BSA-coated 2 ml tube (Eppendorf). Cells were washed twice in 1% BSA in HBSS(-) with centrifugation steps at 400×g for 6 minutes at room temperature. Cells were then resuspended in 1% BSA in HBSS(-) using a BSA-coated uncut-P200 tip and the concentration of the cell suspension was determined with hemocytometer. The cell suspension was subjected to library preparation using Chromium Next GEM Single Cell 3' Kit v3.1 (10× Genomics), aiming for a target cell recovery of 5000-10000. Library preparation was preformed following the instructions provided by the manufacturer 10X Genomics (CG000315 Rev B). The libraries were sequenced with NovaSeq 6000 Sequencing System (Illumina) using NovaSeq 6000 SP Reagent Kit v1.5 (100 Cycles) (Illumina, #20028401) and NovaSeq 6000 S1 Reagent Kit v1.5 (100 Cycles) (Illumina, #20028319) with the paired-end mode as described in the instructions by 10X Genomics (CG000315 Rev B). scRNA-seq data were first mapped to the human reference genome (hg38) to make matrices of UMI count for each gene and each cell using Cell Ranger (10X Genomics, version 6.0.1). Putative doublet clusters were removed using Scrublet (version 0.2.3) with the expected_doublet_rate set as 0.06^64. Then, the count data were imported into the Suerat package (version 4.0.3)^65 for the downstream analysis. […] The cell cycle scores and cell cycle phases were then determined as described before^66. […]

CC1=C(/C=C/C(C)=C/C=C/C(C)=C/C=O)C(C)(C)CCC1 [RAL, all trans-Retinal]
segregation of SM and TB clusters (MG with vs without RA or RAL, 96 h and 120 h): clear segregation of the SM and TB clusters
expression of TCF15, MEOX1, PAX3, PBX1, ZIC3, NR2F1, MEIS2 (MG-embedded, exposed to RAL/RA): up-regulated
MG-associated DEGs in SM (EMT genes, SFRP1, DKK1, FST, ID2, TFC15, PAX3) (addition of RA or RAL to MG): attenuated
